Legend:
ACHN renal carcinoma = experiment: Anti-proliferative effects on ACHN renal carcinoma at 96 hours of growth; type: cell-based; settings: 0.5-25 μm, FIGS. 4 and 5
Method: (§1) The anti-proliferative effects of formula 23, cisplatin and carboplatin were investigated on ACHN renal carcinoma at 96 hours of growth and are shown in FIGS. 4 and 5. Percent control growth and percent standard error of the means (SEM) were conducted at various concentrations including 0.5 μm, 1.0 μm, 2.5 μm, 5.0 μm, 10 μm, 15 μm, 20 μm and 25 μm.

HT1376 colon carcinoma = experiment: Anti-proliferative effects on HT1376 colon carcinoma at 96 hours of growth; type: cell-based; settings: 0.5-25 μm, FIGS. 6 and 7
Method: as §1, with “on HT1376 colon” for “on ACHN renal”, “FIGS. 6” for “FIGS. 4”, “and 7.” for “and 5.”

A375 melanoma = experiment: Anti-proliferative effects on A375 melanoma at 96 hours of growth; type: cell-based; settings: 0.5-25 μm, FIGS. 2 and 3
Method: as §1, with “on A375 melanoma” for “on ACHN renal carcinoma”, “FIGS. 2” for “FIGS. 4”, “and 3.” for “and 5.”, “[…].” for “25 μm.”

[1] = tested on: ovarian cancer cell line NuTu-19; experiment: MTT test against ovarian cancer cell line NuTu-19; type: cell-based
Method: In one example, a silver(I) complex as represented in formula 23 has been tested for preliminary anticancer activity against the ovarian cancer cell line NuTu-19. Silver complex 23 was chosen because of its overall stability.
Cells were plated at 5000 cells per well in a 96-well plate. All tests were run in triplicate. Cells were allowed to incubate overnight after plating followed by the addition of a 50 μM solution of 23, cisplatin, and thiaether-RhCl3 dissolved in complete cell media. The cells were then incubated for 72 h followed by the addition of MTT dissolved in phosphate buffered saline (PBS) and incubated for another 4 h. A sodium dodecyl sulfate: 0.01M HCl (SDS) solution was then added and the cells were incubated overnight. The SDS solution is added to solubilize the blue formazan crystals that are formed by the reduction of MTT by living cells. The absorbance is then read on a microplate reader. Therefore, the higher the absorbance the more living cells present in cell colony.

rat models = experiment: Toxicity in rat models via IV tail injection; type: in vivo
Text: In one embodiment, the R group is an alcohol. Suitable alcohols include ethanol and propanol. For formula 26, n has a value between 1 and 200.

In the case of `CC(=O)[O][Ag][CH]1N(C)C(Cl)=C(Cl)N1C` [formula 23], the “percent control growth compared to carboplatin” value (ACHN renal carcinoma) is reported as “comparable control growth”, the “percent control growth compared to cisplatin” value (ACHN renal carcinoma) is reported as “better control growth” and the “percent control growth compared to carboplatin and cisplatin” value (HT1376 colon carcinoma) is reported as “comparable control growth”. The “percent control growth compared to cisplatin and carboplatin” value (A375 melanoma) was “best control growth”, the “cell kill (MTT absorbance, FIG. 1)” value ([1]; NuTu-19, 50 μM, after 72 h of incubation) was “kills all cells” and the anticancer activity ([1]; NuTu-19, tested for a period of 72 hours, preliminary) was “shown anticancer activity”.

`OC1(O)CN2C=CN3Cc4cccc(n4)CN4C=CN(C1)[CH]4[Ag][CH]1N4C=CN1CC(O)(O)CN1C=CN(Cc5cccc(n5)C4)[CH]1[Ag][CH]32` [formula 24] was tested, and the toxicity (rat models) was “severe toxicity”.

From patent US8282944B2, “Metal complexes incorporated within biodegradable nanoparticles and their use” (The University of Akron, priority 2007, dated 2012)
